Tests used:
rat orexin 1 receptor = rat orexin 1 receptor (Rattus norvegicus, UniProt P56718); assay: Rat orexin 1 receptor radioligand binding; settings: rat orexin 1 receptor; averages of 2-20 runs; read-out: rOX1 Ki
Method in brief: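 Competition binding with the tritiated thiazolyl-pyrrolidinyl-methanone radioligand in PBS on homogenized rat or human OX1R-expressing cell suspensions, ≤0.1% DMSO; nonspecific binding defined with 10 μM almorexant. Bound radioactivity read by scintillation after filtration; IC50 from one-site competition fit, converted to Ki using pre-determined radioligand Kd.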

human orexin 1 receptor = human orexin 1 receptor (Homo sapiens, UniProt O43613); assay: Human orexin 1 receptor radioligand binding; settings: human orexin 1 receptor; averages of 2-20 runs; read-out: hOX1 Ki
Method: Data are analyzed using pc-Sandy macro and graphed on Graphpad Prism 5. For analysis, each concentration point is averaged from triplicate values and the averaged values are plotted on Graphpad Prism. The IC50 was determined by applying the following equation (GraphPad Prism 5.0, SanDiego) for one site competition where X=log (concentration) and Y=specific binding. Top denotes the total [^3H]-(1-(5-(2-fluoro-phenyl)-2-methyl-thiazol-4-yl)-1-((S)-2-(5-phenyl-(1,3,4)oxadiazol-2-ylmethyl)-pyrrolidin-1-yl)-methanone) binding, bottom denotes the nonspecific [^3H]-(1-(5-(2-fluoro-phenyl)-2-methyl-thiazol-4-yl)-1-((S)-2-(5-phenyl-(1,3,4)oxadiazol-2-ylmethyl)-pyrrolidin-1-yl)-methanone) binding. Graphpad Prism calculates Ki value from IC50 and the pre-determined Kd values for [^3H]-(1-(5-(2-fluoro-phenyl)-2-methyl-thiazol-4-yl)-1-((S)-2-(5-phenyl-(1,3,4)oxadiazol-2-ylmethyl)-pyrrolidin-1-yl)-methanone) and [3H]-EMPA. The Ki for each compound is then uploaded into 3DX. Each run comprises individual compounds in triplicate. The data in Table 1 and Table 2 represent averages from between 2-20 runs
Rat and Human Orexin 1 Receptor Radioligand Binding Studies
After centrifugation (2K×G, 5 min at 4° C.), the supernatant was aspirated and the pellets frozen and stored at −80° C. […] Each cell pellet from a 15 cm plate was resuspended in 10 mL, stored on ice, and homogenized for 45 sec prior to addition to the reactions. […] The final concentration of DMSO in the reactions is equal to or less than 0.1%. Total and nonspecific binding was determined in the absence and presence of 10 μM almorexant. The total volume of each reaction is 200 μL (20 μL of diluted compounds, 80 μL of [^3H]-(1-(5-(2-fluoro-phenyl)-2-methyl-thiazol-4-yl)-1-((S)-2-(5-phenyl-(1,3,4)oxadiazol-2-ylmethyl)-pyrrolidin-1-yl)-methanone) diluted in PBS and 100 μL of the cell suspension). […] The plates were washed 3 times by aspirating 30 ml PBS through the plates. Plates were dried in 55° C. oven for 60 min, scintillation fluid was added, and the radioactivity was counted on a Topcount (Packard).

human orexin 2 receptor = human orexin 2 receptor (Homo sapiens (Human), UniProt O43614); assay: Human orexin 2 receptor radioligand binding; settings: human orexin 2 receptor; averages of 2-20 runs; read-out: hOX2 Ki
Chain of human orexin 2 receptor (O43614 whole entry): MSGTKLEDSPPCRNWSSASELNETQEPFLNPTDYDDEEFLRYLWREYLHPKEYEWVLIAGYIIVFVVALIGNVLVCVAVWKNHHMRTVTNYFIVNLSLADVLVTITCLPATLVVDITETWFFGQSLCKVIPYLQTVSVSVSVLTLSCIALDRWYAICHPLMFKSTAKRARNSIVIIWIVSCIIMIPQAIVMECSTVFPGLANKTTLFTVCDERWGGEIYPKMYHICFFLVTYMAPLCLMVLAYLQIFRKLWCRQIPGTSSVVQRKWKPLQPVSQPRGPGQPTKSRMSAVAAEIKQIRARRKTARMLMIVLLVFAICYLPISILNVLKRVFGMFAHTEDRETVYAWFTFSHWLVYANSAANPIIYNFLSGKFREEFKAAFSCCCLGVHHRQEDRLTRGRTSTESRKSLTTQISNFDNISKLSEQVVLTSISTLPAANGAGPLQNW
Method in brief: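 HEK293 cells stably expressing human OX2 receptor, homogenized, incubated with [3H]-EMPA and compounds (DMSO ≤0.1%); nonspecific binding with 10 μM almorexant. Filter-bound radioactivity counted by scintillation; IC50 from one-site competition fit of triplicates, Ki from IC50 and predetermined radioligand Kd, averaged over 2-20 runs.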

| Structure (SMILES) | Ki (rat orexin 1 receptor) | Ki (human orexin 1 receptor) | Ki (human orexin 2 receptor) |
| --- | --- | --- | --- |
| Cc1cnc(-n2nccn2)c(C(=O)N2C[C@H]3C[C@@H](Oc4ccc(C(F)(F)F)cn4)[C@@H]2C3)c1 [Example 88, (5-methyl-2-(2H-1,2,3-triazol-2-yl)pyridin-3-yl)((1S,4R,6R)-6-((5-(trifluoromethyl)pyridin-2-yl)oxy)-2-azabicyclo[2.2.1]heptan-2-yl)methanone] | 0.045 µM | 0.036 µM | > 10 µM |
| O=C(c1ccccc1-c1ncc(F)cn1)N1C[C@H]2C[C@@H](Oc3ccc(C(F)(F)F)cn3)[C@@H]1C2 [Example 89, (2-(5-fluoropyrimidin-2-yl)phenyl)((1S,4R,6R)-6-((5-(trifluoromethyl)pyridin-2-yl)oxy)-2-azabicyclo[2.2.1]heptan-2-yl)methanone] | 0.018 µM | 0.008 µM | 1.1 µM |
| O=C(c1cccc(F)c1-c1ncc(F)cn1)N1C[C@H]2C[C@@H](Oc3ccc(C(F)(F)F)cn3)[C@@H]1C2 [Example 90, (3-fluoro-2-(5-fluoropyrimidin-2-yl)phenyl)((1S,4R,6R)-6-((5-(trifluoromethyl)pyridin-2-yl)oxy)-2-azabicyclo[2.2.1]heptan-2-yl)methanone] | 0.015 µM | 0.019 µM | 2.15 µM |
| Cc1cccc(C(=O)N2C[C@H]3C[C@@H](Oc4ccc(C(F)(F)F)cn4)[C@@H]2C3)c1-c1ncc(F)cn1 [Example 91, (2-(5-fluoropyrimidin-2-yl)-3-methylphenyl)((1S,4R,6R)-6-((5-(trifluoromethyl)pyridin-2-yl)oxy)-2-azabicyclo[2.2.1]heptan-2-yl)methanone] | 0.008 µM | 0.006 µM | 0.331 µM |
| Cc1ccc(-c2ncccn2)c(C(=O)N2C[C@H]3C[C@@H](Oc4ccc(C(F)(F)F)cn4)[C@@H]2C3)n1 [Example 92, (6-methyl-3-(pyrimidin-2-yl)pyridin-2-yl)((1S,4R,6R)-6-((5-(trifluoromethyl)pyridin-2-yl)oxy)-2-azabicyclo[2.2.1]heptan-2-yl)methanone] | 0.013 µM | 0.019 µM | 0.362 µM |
| O=C(c1nccnc1-c1ccccc1)N1C[C@H]2C[C@@H](Oc3ccc(C(F)(F)F)cn3)[C@@H]1C2 [Example 93, (3-phenylpyrazin-2-yl)((1S,4R,6R)-6-((5-(trifluoromethyl)pyridin-2-yl)oxy)-2-azabicyclo[2.2.1]heptan-2-yl)methanone] | 0.125 µM | 0.076 µM | 3.1 µM |
| O=C(c1cccc(F)c1-c1ncccn1)N1C[C@H]2C[C@@H](Oc3cccc(C(F)(F)F)n3)[C@@H]1C2 [Example 94, (3-fluoro-2-(pyrimidin-2-yl)phenyl)((1S,4R,6R)-6-((6-(trifluoromethyl)pyridin-2-yl)oxy)-2-azabicyclo[2.2.1]heptan-2-yl)methanone] | 0.035 µM | 0.03 µM | 0.848 µM |
| O=C(c1cccc(F)c1-c1ncccn1)N1C[C@H]2C[C@@H](Oc3cc(C(F)(F)F)ccn3)[C@@H]1C2 [Example 95, (3-fluoro-2-(pyrimidin-2-yl)phenyl)((1S,4R,6R)-6-((4-(trifluoromethyl)pyridin-2-yl)oxy)-2-azabicyclo[2.2.1]heptan-2-yl)methanone] | 0.029 µM | 0.037 µM | 0.137 µM |
| O=C(c1ccccc1-n1nccn1)N1C[C@H]2C[C@@H](Oc3ncc(C(F)(F)F)cc3F)[C@@H]1C2 [Example 97, (2-(2H-1,2,3-triazol-2-yl)phenyl)((1S,4R,6R)-6-((3-fluoro-5-(trifluoromethyl)pyridin-2-yl)oxy)-2-azabicyclo[2.2.1]heptan-2-yl)methanone] | 0.021 µM | 0.015 µM | 1.1 µM |
| Cc1ccc(-n2nccn2)c(C(=O)N2CC3CC(Oc4ncc(C(F)(F)F)cc4F)C2C3)n1 [Example 98, (1S,4R,6R)-6-((3-fluoro-5-(trifluoromethyl)pyridin-2-yl)oxy)-2-azabicyclo[2.2.1]heptan-2-yl)(6-methyl-3-(2H-1,2,3-triazol-2-yl)pyridin-2-yl)methanone] | 0.037 µM | 0.028 µM | 1.2 µM |
| O=C(c1ccccc1-c1ncccn1)N1C[C@H]2C[C@@H](Oc3ncc(C(F)(F)F)cc3F)[C@@H]1C2 [Example 99, ((1S,4R,6R)-6-((3-fluoro-5-(trifluoromethyl)pyridin-2-yl)oxy)-2-azabicyclo[2.2.1]heptan-2-yl)(2-(pyrimidin-2-yl)phenyl)methanone] | 0.011 µM | 0.01 µM | 0.725 µM |
| O=C(c1cccc(F)c1-c1ncccn1)N1C[C@H]2C[C@@H](Oc3ncc(C(F)(F)F)cc3F)[C@@H]1C2 [Example 100, (3-fluoro-2-(pyrimidin-2-yl)phenyl)((1S,4R,6R)-6-((3-fluoro-5-(trifluoromethyl)pyridin-2-yl)oxy)-2-azabicyclo[2.2.1]heptan-2-yl)methanone] | 0.013 µM | 0.012 µM | 1.6 µM |
| Cc1ccc(O[C@@H]2C[C@H]3C[C@@H]2N(C(=O)c2cccc(F)c2-c2ncccn2)C3)nc1 [Example 101, (3-fluoro-2-(pyrimidin-2-yl)phenyl)((1S,4R,6R)-6-((5-methylpyridin-2-yl)oxy)-2-azabicyclo[2.2.1]heptan-2-yl)methanone] | 0.026 µM | 0.011 µM | 0.71 µM |
| Cc1ccc(C(=O)N2C[C@H]3C[C@@H](Oc4ccc(Br)cn4)[C@@H]2C3)c(-n2nccn2)n1 [Example 105, ((1S,4R,6R)-6-((5-bromopyridin-2-yl)oxy)-2-azabicyclo[2.2.1]heptan-2-yl)(6-methyl-2-(2H-1,2,3-triazol-2-yl)pyridin-3-yl)methanone] | 0.119 µM | 0.337 µM | > 10 µM |
| O=C(c1cccc(F)c1-n1nccn1)N1C[C@H]2C[C@@H](Oc3ccc(Br)cn3)[C@@H]1C2 [Example 106, ((1S,4R,6R)-6-((5-bromopyridin-2-yl)oxy)-2-azabicyclo[2.2.1]heptan-2-yl)(3-fluoro-2-(2H-1,2,3-triazol-2-yl)phenyl)methanone] | 0.003 µM | 0.004 µM | 0.436 µM |
| O=C(c1ccc(F)cc1-n1nccn1)N1C[C@H]2C[C@@H](Oc3ccc(Br)cn3)[C@@H]1C2 [Example 107, ((1S,4R,6R)-6-((5-bromopyridin-2-yl)oxy)-2-azabicyclo[2.2.1]heptan-2-yl)(4-fluoro-2-(2H-1,2,3-triazol-2-yl)phenyl)methanone] | 0.016 µM | 0.026 µM | 1.96 µM |
| O=C(c1cc(F)ccc1-n1nccn1)N1C[C@H]2C[C@@H](Oc3ccc(Br)cn3)[C@@H]1C2 [Example 108, ((1S,4R,6R)-6-((5-bromopyridin-2-yl)oxy)-2-azabicyclo[2.2.1]heptan-2-yl)(5-fluoro-2-(2H-1,2,3-triazol-2-yl)phenyl)methanone] | 0.008 µM | 0.031 µM | 0.776 µM |
| O=C(c1c(F)cccc1-n1nccn1)N1C[C@H]2C[C@@H](Oc3ccc(Br)cn3)[C@@H]1C2 [Example 109, ((1S,4R,6R)-6-((5-bromopyridin-2-yl)oxy)-2-azabicyclo[2.2.1]heptan-2-yl)(2-fluoro-6-(2H-1,2,3-triazol-2-yl)phenyl)methanone] | 0.006 µM | 0.005 µM | 0.442 µM |
| O=C(c1ccc(F)cc1-c1ncccn1)N1C[C@H]2C[C@@H](Oc3ccc(Br)cn3)[C@@H]1C2 [Example 110, ((1S,4R,6R)-6-((5-bromopyridin-2-yl)oxy)-2-azabicyclo[2.2.1]heptan-2-yl)(4-fluoro-2-(pyrimidin-2-yl)phenyl)methanone] | 0.006 µM | 0.011 µM | 1.2 µM |
| O=C(c1cc(F)ccc1-c1ncccn1)N1C[C@H]2C[C@@H](Oc3ccc(Br)cn3)[C@@H]1C2 [Example 111, ((1S,4R,6R)-6-((5-bromopyridin-2-yl)oxy)-2-azabicyclo[2.2.1]heptan-2-yl)(5-fluoro-2-(pyrimidin-2-yl)phenyl)methanone] | 0.005 µM | 0.005 µM | 0.458 µM |

Source: patent US9611277B2 (Janssen Pharmaceutica NV, priority 2013, dated 2017)
